30 molecules from patent publication US8865734B2 (priority 2010, dated 2014) can be followed below.

Assay [1] relates to in vitro grown Mycobacteria (M. tuberculosis). Briefly: QUM: Quantification of in vitro grown Mycobacteria (in vitro growth fluorescence assay). In kind it is cell-based. Conditions: Mycobacterium tuberculosis; MIC, 80% bacterial growth inhibition; in vitro growth; read-out: QUM. In outline: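 Mycobacterium tuberculosis grown in vitro was quantified by fluorescence across compound dose responses. MIC is defined as the minimum concentration producing 80% growth inhibition.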

The test system of assay [2] is M. tuberculosis inside the host macrophage. In words: QIM: Quantification of Intracellular Mycobacteria (intracellular growth assay, phenotypic cell-based). Conditions: Mycobacterium tuberculosis; MIC, 80% bacterial growth inhibition; intracellular growth; read-out: QIM. In outline: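 Phenotypic high-content assay measuring M. tuberculosis multiplication inside host macrophages, run as dose response. MIC is the minimum compound concentration giving 80% bacterial growth inhibition.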

Values after ≈ are worked out from the molar mass of the structure shown.

In the case of `CCc1nc2cc(N3CCNCC3)ccn2c1C(=O)NCc1ccc(C(C)(C)C)cc1` [Compound 145, N-(4-tert-Butylbenzyl)-2-ethyl-7-(piperazin-1-yl)imidazo[1,2-a]pyridine-3-carboxamide], the MIC in assay [1] and in assay [2] was more than 20 µM in each case.

Turning to `CCc1nc2ccc([N+](=O)[O-])cn2c1C(=O)NCc1ccc(OC(F)(F)F)cc1` [Compound 149, 2-Ethyl-6-nitro-N-(4-(trifluoromethoxy)benzyl)imidazo[1,2-a]pyridine-3-carboxamide], the MIC in assay [1] and in assay [2] was more than 20 µM in each case.

As to `CCc1nc2cc([N+](=O)[O-])ccn2c1C(=O)NCc1ccc(OC(F)(F)F)cc1` [Compound 150, 2-Ethyl-7-nitro-N-(4-(trifluoromethoxy)benzyl)imidazo[1,2-a]pyridine-3-carboxamide], the MIC in assay [1] and in assay [2] was more than 20 µM throughout.

For the molecule `CCc1nc2ccc(C(F)(F)F)cn2c1C(=O)NCc1ccc(OC(F)(F)F)cc1` [Compound 151, 2-Ethyl-N-(4-(trifluoromethoxy)benzyl)-6-(trifluoromethyl)imidazo[1,2-a]pyridine-3-carboxamide], the MIC in assay [1] was 1 to 20 µM (≈ 0.431 to 8.63 µg/mL); in assay [2], more than 20 µM.

In the case of `CCc1nc2ccc(Br)cn2c1C(=O)NCc1ccc(OC(F)(F)F)cc1` [Compound 152, 6-Bromo-2-ethyl-N-(4-(trifluoromethoxy)benzyl)imidazo[1,2-a]pyridine-3-carboxamide], the MIC in assay [1] and in assay [2] was less than 1 µM throughout.

For `CCc1nc2cc(Cl)c(Cl)cn2c1C(=O)NCc1ccc(OC(F)(F)F)cc1` [Compound 153, 6,7-Dichloro-2-ethyl-N-(4-(trifluoromethoxy)benzyl)imidazo[1,2-a]pyridine-3-carboxamide], the MIC was 1 to 20 µM (≈ 0.432 to 8.64 µg/mL) in assay [1] and more than 20 µM in assay [2].

Take `Cc1nc2ccc(Cl)cn2c1C(=O)NCc1ccc(OC(F)(F)F)cc1` [Compound 154, 6-Chloro-2-methyl-N-(4-(trifluoromethoxy)benzyl)imidazo[1,2-a]pyridine-3-carboxamide]: the results for the MIC in assay [1] and in assay [2] were less than 1 µM and 1 to 20 µM (≈ 0.384 to 7.68 µg/mL), respectively.

Turning to `CCCC(=O)NCc1ccc(-c2ccc(CNC(=O)c3c(CC)nc4cc(Cl)ccn34)cc2)cc1` [Compound 159, N-((4′-(Butyramidomethyl)biphenyl-4-yl)methyl)-7-chloro-2-ethylimidazo[1,2-a]pyridine-3-carboxamide], the MIC in assay [1] and in assay [2] was less than 1 µM each time.

Turning to `CCc1nc2ccc(Cl)cn2c1C(=O)NCc1ccc(N2CCC(Oc3ccc(Cl)cc3)CC2)cc1` [Compound 162, 6-Chloro-N-(4-(4-(4-chlorophenoxy)piperidin-1-yl)benzyl)-2-ethylimidazo[1,2-a]pyridine-3-carboxamide], the MIC in assay [1] and in assay [2] was less than 1 µM throughout.

Take `CCc1nc2cc(Cl)ccn2c1C(=O)NCc1ccc(N2CCC(Oc3ccc(Cl)cc3)CC2)cc1` [Compound 163, 7-Chloro-N-(4-(4-(4-chlorophenoxy)piperidin-1-yl)benzyl)-2-ethylimidazo[1,2-a]pyridine-3-carboxamide]: the MIC in assay [1] and in assay [2] was less than 1 µM each time.

For `CCc1nc2ccc(Cl)cn2c1C(=O)NCc1ccc(N2CCC(Oc3ccc(C(F)(F)F)cc3)CC2)cc1` [Compound 164, 6-Chloro-2-ethyl-N-(4-(4-(4-(trifluoromethyl)phenoxy)piperidin-1-yl)benzyl) imidazo[1,2-a]pyridine-3-carboxamide], the MIC in assay [1] and in assay [2] was less than 1 µM each time.

Turning to `CCc1nc2cc(Cl)ccn2c1C(=O)NCc1ccc(N2CCC(Oc3ccc(C(F)(F)F)cc3)CC2)cc1` [Compound 165, 7-Chloro-2-ethyl-N-(4-(4-(4-(trifluoromethyl)phenoxy)piperidin-1-yl)benzyl) imidazo[1,2-a]pyridine-3-carboxamide], the MIC in assay [1] and in assay [2] was less than 1 µM throughout.

For `CCc1nc2ccc(Cl)cn2c1C(=O)NCc1ccc(N2CCC(Oc3ccc(F)cc3)CC2)cc1` [Compound 166, 6-Chloro-2-ethyl-N-(4-(4-(4-fluorophenoxy)piperidin-1-yl)benzyl)imidazo[1,2-a]pyridine-3-carboxamide], the MIC in assay [1] and in assay [2] was less than 1 µM each time.

On to `CCc1nc2ccc(C(F)(F)F)cn2c1C(=O)NCc1ccc(N2CCC(Oc3ccc(OC(F)(F)F)cc3)CC2)cc1` [Compound 168, 2-Ethyl-N-(4-(4-(4-(trifluoromethoxy)phenoxy)piperidin-1-yl)benzyl)-6-(trifluoromethyl)imidazo[1,2-a]pyridine-3-carboxamide], for which the MIC in assay [1] and in assay [2] was 1 to 20 µM (≈ 0.607 to 12.1 µg/mL) throughout.

As to `CCc1nc2cc([N+](=O)[O-])ccn2c1C(=O)NCc1ccc(N2CCC(Oc3ccc(OC(F)(F)F)cc3)CC2)cc1` [Compound 170, 2-Ethyl-7-nitro-N-(4-(4-(4-(trifluoromethoxy)phenoxy)piperidin-1-yl)benzyl) imidazo[1,2-a]pyridine-3-carboxamide], the MIC in assay [1] and in assay [2] was 1 to 20 µM (≈ 0.584 to 11.7 µg/mL) throughout.

Regarding `CCc1nc2ccc(Cl)cn2c1C(=O)NCc1ccc(N2CCN(Cc3ccc(F)cc3)CC2)cc1` [Compound 171, 6-Chloro-2-ethyl-N-(4-(4-(4-fluorobenzyl)piperazin-1-yl)benzyl)imidazo[1,2-a]pyridine-3-carboxamide], the MIC in assay [1] and in assay [2] was less than 1 µM throughout.

As to `CCc1nc2cc(Cl)c(Cl)cn2c1C(=O)NCc1ccc(N2CCN(Cc3ccc(F)cc3)CC2)cc1` [Compound 175, 6,7-Dichloro-2-ethyl-N-(4-(4-(4-fluorobenzyl)piperazin-1-yl)benzyl)imidazo[1,2-a]pyridine-3-carboxamide], the MIC was more than 20 µM in assay [1] and less than 1 µM in assay [2].

As for `CCc1nc2cc(Cl)c(Cl)cn2c1C(=O)NCc1ccc(N2CCN(c3ccc(F)cc3)CC2)cc1` [Compound 180, 6,7-Dichloro-2-ethyl-N-(4-(4-(4-fluorophenyl)piperazin-1-yl)benzyl)imidazo[1,2-a]pyridine-3-carboxamide], the MIC in assay [1] and in assay [2] was less than 1 µM throughout.

As to `CCCCCC(=O)NCc1ccc(-c2ccc(CNC(=O)c3c(CC)nc4cc(Cl)ccn34)cc2)cc1` [Compound 184, 7-Chloro-2-ethyl-N-((4′-(hexanamidomethyl)biphenyl-4-yl)methyl)imidazo[1,2-a]pyridine-3-carboxamide], the MIC in assay [1] and in assay [2] was less than 1 µM throughout.

As for `CCc1nc2cc(Cl)ccn2c1C(=O)NCc1ccc(Oc2ccc(F)cc2)cc1` [Compound 188, 7-Chloro-2-ethyl-N-(4-(4-fluorophenoxy)benzyl)imidazo[1,2-a]pyridine-3-carboxamide], the MIC in assay [1] and in assay [2] was less than 1 µM each time.

As to `CCc1nc2ccc(Br)cn2c1C(=O)NCc1ccc(Oc2ccc(F)cc2)cc1` [Compound 189, 6-Bromo-2-ethyl-N-(4-(4-fluorophenoxy)benzyl)imidazo[1,2-a]pyridine-3-carboxamide], the MIC in assay [1] and in assay [2] was less than 1 µM each time.

With `CCc1nc2ccccn2c1C(=O)NCc1ccc(Oc2ccc(OC(F)(F)F)cc2)cc1` [Compound 192, 2-Ethyl-N-(4-(4-(trifluoromethoxy)phenoxy)benzyl)imidazo[1,2-a]pyridine-3-carboxamide], the MIC in assay [1] and in assay [2] was less than 1 µM in each case.

For the molecule `CCc1nc2cc(Cl)ccn2c1C(=O)NCc1ccc(Oc2ccc(OC(F)(F)F)cc2)nc1` [Compound 195, 7-Chloro-2-ethyl-N-((6-(4-(trifluoromethoxy)phenoxy)pyridin-3-yl)methyl)imidazo[1,2-a]pyridine-3-carboxamide], the MIC in assay [1] and in assay [2] was 1 to 20 µM (≈ 0.491 to 9.82 µg/mL) each time.

With `CCc1nc2ccc(Cl)cn2c1C(=O)N(C)Cc1ccc(Oc2ccc(F)cc2)cc1` [Compound 197, 6-Chloro-2-ethyl-N-(4-(4-fluorophenoxy)benzyl)-N-methylimidazo[1,2-a]pyridine-3-carboxamide], the MIC in assay [1] and in assay [2] was 1 to 20 µM (≈ 0.438 to 8.76 µg/mL) throughout.

As for `CCc1nc2ccc(Cl)cn2c1C(=O)NCc1ccc(Nc2ccc(OC(F)(F)F)cc2)cc1` [Compound 198, 6-Chloro-2-ethyl-N-(4-(4-(trifluoromethoxy)phenylamino)benzyl)imidazo[1,2-a]pyridine-3-carboxamide], the MIC in assay [1] is 1 to 20 µM (≈ 0.489 to 9.78 µg/mL); in assay [2], less than 1 µM.

As for `CCc1nc2cc(Cl)ccn2c1C(=O)NCc1ccc(Nc2ccc(OC(F)(F)F)cc2)cc1` [Compound 199, 7-Chloro-2-ethyl-N-(4-(4-(trifluoromethoxy)phenylamino)benzyl)imidazo[1,2-a]pyridine-3-carboxamide], the MIC in assay [1] and in assay [2] was less than 1 µM in each case.

On to `CCc1nc2ccc(Cl)cn2c1C(=O)NCc1ccc(OCc2ccc(F)cc2)cc1` [Compound 202, 6-Chloro-2-ethyl-N-(4-(4-fluorobenzyloxy)benzyl)imidazo[1,2-a]pyridine-3-carboxamide], for which the MIC in assay [1] and in assay [2] was less than 1 µM in each case.

On to `CCc1nc2cc(Cl)ccn2c1C(=O)NCc1ccc(OCc2ccc(F)cc2)cc1` [Compound 203, 7-Chloro-2-ethyl-N-(4-(4-fluorobenzyloxy)benzyl)imidazo[1,2-a]pyridine-3-carboxamide], for which the MIC in assay [1] and in assay [2] was 1 to 20 µM (≈ 0.438 to 8.76 µg/mL) each time.

Consider `CCc1nc2ccc(Cl)cn2c1C(=O)NCc1ccc2[nH]c(-c3ccc(OC(F)(F)F)cc3)nc2c1` [Compound 204, 6-Chloro-2-ethyl-N-((2-(4-(trifluoromethoxy)phenyl)-1H-benzo[d]imidazol-5-yl)methyl) imidazo[1,2-a]pyridine-3-carboxamide], for which the MIC in assay [1] and in assay [2] was more than 20 µM each time.

In the case of `CCc1nc2cc(Cl)ccn2c1C(=O)NCc1ccc2[nH]c(-c3ccc(OC(F)(F)F)cc3)nc2c1` [Compound 205, 7-Chloro-2-ethyl-N-((2-(4-(trifluoromethoxy)phenyl)-1H-benzo[d]imidazol-5-yl)methyl) imidazo[1,2-a]pyridine-3-carboxamide], the MIC in assay [1] and in assay [2] was more than 20 µM throughout.
